Tested on: carrageenan-induced edema
Assay: Carrageenan-induced hind paw edema in rats, humate in chow for 37 days with or without indomethacin (Example 3)
Format: in vivo, rat
Conditions: indomethacin only, 3 mg/kg subcutaneously 30 min before carrageenan; P<0.05
From the text: Male Sprague Dawley rats weighing approximately 50 g were purchased from Harlan U.S. and housed in wire cages in the animal facility at Mercer University School of Pharmacy. The animals were given a short period of time to acclimate to the new environment and received powdered rat chow from Purina and water ad libitum. At the beginning of the experimental period, the rats were divided into six groups of eight each. Control and indomethacin only groups received only powdered rat chow for the entire length of the experiment. For the four other groups, insoluble granular Menefee Humate® was mixed with the powdered rat chow and placed in feeders. Rats received chow with either 0.1%, 0.5% or 1.0% insoluble, granular Menefee Humate® by weight. After 37 days of receiving humate in their food, the animals weighed approximately 278 g, which in an appropriate size for inducing inflammation. An amount of indomethacin sufficient to achieve 50% inhibition of carrageenan-induced edema (3 mg/kg) was administered to the indomethacin only group and to the 0.1% humate plus indomethacin group. The indomethacin was administered subcutaneously 30 minutes before the administration of carageenan. The rats were then injected in one hind paw with carrageenan (2%). After three hours, the hind paws were measured by mercury displacement.

COc1ccc2c(c1)c(CC(=O)O)c(C)n2C(=O)c1ccc(Cl)cc1 [indomethacin]
inhibition of carrageenan-induced edema: ~50%
